Results from patent US8835646B2, “Organic compounds” (Novartis AG, priority 2005, dated 2014).

Assays:
aldosterone synthase = target: T1, aldosterone synthase (Homo sapiens, UniProt P19099); experiment: cellular aldosterone production in NCI-H295R cells stimulated with Ang II (RIA/SPA); format: cell-based; settings: human adrenocortical carcinoma NCI-H295R cells, 1 μM Ang II, 24 hr
T1 construct: host or cells: NCI-H295R
T1 sequence (P19099 25-503): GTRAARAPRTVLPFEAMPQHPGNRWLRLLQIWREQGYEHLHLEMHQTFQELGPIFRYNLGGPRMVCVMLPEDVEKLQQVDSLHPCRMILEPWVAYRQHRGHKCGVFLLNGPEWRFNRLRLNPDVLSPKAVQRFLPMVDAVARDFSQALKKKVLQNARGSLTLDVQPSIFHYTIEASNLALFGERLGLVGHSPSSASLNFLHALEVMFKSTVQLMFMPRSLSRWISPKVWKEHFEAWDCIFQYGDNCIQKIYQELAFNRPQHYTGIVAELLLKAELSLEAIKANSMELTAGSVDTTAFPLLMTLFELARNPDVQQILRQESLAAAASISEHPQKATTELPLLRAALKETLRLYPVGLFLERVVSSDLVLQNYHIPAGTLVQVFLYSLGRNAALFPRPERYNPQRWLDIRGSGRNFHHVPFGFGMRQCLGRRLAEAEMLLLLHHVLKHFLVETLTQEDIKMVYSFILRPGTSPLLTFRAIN
Excerpt: (§1) Human adrenocortical carcinoma NCl-H295R cell line is obtained from American Type Culture Collection (Manassas, Va.). Insulin/transferrin/selenium (ITS)-A supplement (100×), DMEM/F-12, antibiotic/antimycotic (100×), and fetal calf serum (FCS) are purchased from Gibco (Grand Island, N.Y.). Anti-mouse PVT scintillation proximity assay (SPA) beads and NBS 96-well plates are obtained from Amersham (Piscataway, N.J.) and Corning (Acton, Mass.), respectively. Solid black 96-well flat bottom plates are purchased from Costar (Corning, N.Y.). Aldosterone and angiotensin (Ang II) are purchased from Sigma (St. Louis, Mo.). D-[1,2,6,7-^3H(N)]aldosterone was acquired from PerkinElmer (Boston, Mass.). Nu-serum was a product of BD Biosciences (Franklin Lakes, N.J.). The NADPH regenerating system, dibenzylfluorescein (DBF), and human aromatase Supersomes® are obtained from Gentest (Woburn, Mass.).
For in vitro measurement of aldosterone activity, human adrenocortical carcinoma NCI-H295R cells are seeded in NBS 96-well plates at a density of 25,000 cells/well in 100 μl of a growth medium containing DMEM/F12 supplemented with 10% FCS, 2.5% Nu-serum, 1 μg ITS/ml, and 1× antibiotic/antimycotic. The medium is changed after culturing for 3 days at 37° C. under an atmosphere of 5% CO2/95% air. On the following day, cells are rinsed with 100 μl of DMEM/F12 and incubated with 100 μl of treatment medium containing 1 μM Ang II and a compound at different concentrations in quadruplicate wells at 37° C. for 24 hr. At the end of incubation, 50 μl of medium is withdrawn from each well for measurement of aldosterone production by an RIA using mouse anti-aldosterone monoclonal antibodies.
Measurement of aldosterone activity can also be performed using a 96-well plate format. Each test sample is incubated with 0.02 μCi of D-[1,2,6,7-^3H(N)]aldosterone and 0.3 μg of anti-aldosterone antibody in phosphate-buffered saline (PBS) containing 0.1% Triton X-100, 0.1% bovine serum albumin, and 12% glycerol in a total volume of 200 μl at room temperature for 1 hr. Anti-mouse PVT SPA beads (50 μl) are then added to each well and incubated overnight at room temperature prior to counting in a Microbeta plate counter. The amount of aldosterone in each sample is calculated by comparing with a standard curve generated using known quantities of the hormone.
(§2) Full concentration-response curves of the test compound are performed at least 3 times. The IC50 values are derived using a non-linear least squares curve-fitting program from Microsoft XLfit.

human aromatase = target: T2, human aromatase (Homo sapiens, UniProt P11511); experiment: human aromatase assay (Supersomes, DBF substrate, fluorescence); format: biochemical; settings: 10000 nM
T2 construct: purchased Gentest (Woburn, Mass.)
T2 sequence (P11511 1-503): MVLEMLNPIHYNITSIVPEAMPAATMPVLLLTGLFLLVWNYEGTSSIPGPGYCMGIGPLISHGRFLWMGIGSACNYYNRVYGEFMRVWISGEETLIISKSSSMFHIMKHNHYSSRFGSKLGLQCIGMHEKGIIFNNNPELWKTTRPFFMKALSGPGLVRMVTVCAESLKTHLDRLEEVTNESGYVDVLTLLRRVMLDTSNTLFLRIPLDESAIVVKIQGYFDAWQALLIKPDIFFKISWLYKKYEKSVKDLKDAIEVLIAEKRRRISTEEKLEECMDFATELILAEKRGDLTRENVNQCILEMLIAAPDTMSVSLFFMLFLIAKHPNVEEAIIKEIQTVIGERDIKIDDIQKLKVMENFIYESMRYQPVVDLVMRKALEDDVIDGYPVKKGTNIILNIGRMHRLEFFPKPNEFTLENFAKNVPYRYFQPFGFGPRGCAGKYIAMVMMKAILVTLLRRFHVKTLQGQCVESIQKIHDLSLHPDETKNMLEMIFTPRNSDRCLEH
Excerpt: as §1
To measure aromatase activity, the human aromatase assay is performed in 96-well flat bottom plates according to a published protocol (Stresser et al, 2000) with minor modifications. Briefly, 10 μl of an NADPH regenerating system containing 2.6 mM NADP^+, 6.6 mM glucose 6-phosphate, 6.6 mM MgCl2, and 0.8 U/ml glucose-6-phosphate dehydrogenase in 50 mM potassium phosphate, pH 7.4, is pre-incubated with the test compound at a desired concentration at 30° C. for 10 min in a total volume of 100 μl. Afterwards, 4 pmol of human aromatase, 20 μg of control microsomal protein, and 4 μM DBF in 100 μl of 50 mM potassium phosphate, pH 7.4, is added to each well and incubated at 30° C. for 90 min. The reaction is terminated by the addition of 75 μl of 2 N NaOH to each well. After 2 hr, the product, fluorescein, is measured by a fluorimeter using excitation and emission wavelengths of 485 and 538 nm, respectively.
as §2

| Compound | IC50 (aldosterone synthase) | inhibition at 10 µM (human aromatase) |
| --- | --- | --- |
| N#Cc1ccc(C2(C(=O)N3CCCCC3)CCc3cncn32)c(Cl)c1 (stereo not shown) [3-Chloro-4-[5-(piperidine-1-carbonyl)-6,7-dihydro-5H-pyrrolo[1,2-c]imidazol-5-yl]benzonitrile] | 135 nM | 98% |
| COC(=O)C1(c2ccc(C#N)cc2OC(F)(F)F)CCc2cncn21 (stereo not shown) [5-(4-Cyano-2-trifluoromethoxyphenyl)-6,7-dihydro-5H-pyrrolo[1,2-c]imidazole-5-carboxylic acid methyl ester] | 2 nM | 99% |
| Fc1ccc(C2CCCc3cncn32)c(-c2ccsc2)c1 (stereo not shown) [5-(4-Fluoro-2-thiophen-3-yl-phenyl)-5,6,7,8-tetrahydroimidazo[1,5-a]pyridine] | 93 nM | 88% |
| COc1cc(C#N)ccc1C1CCCc2cncn21 (stereo not shown) [3-Methoxy-4-(5,6,7,8-tetrahydro-imidazo[1,5-a]pyridin-5-yl)benzonitrile] | 270 nM | 100% |
| COC(=O)C1(c2cc(OC)c(C#N)cc2OC)CCc2cncn21 (stereo not shown) [5-(4-Cyano-2,5-dimethoxyphenyl)-6,7-dihydro-5H-pyrrolo[1,2-c]imidazole-5-carboxylic acid methyl ester] | 113 nM | 98% |
| COC(=O)C1(c2ccc(C#N)cc2Cl)CCc2cncn21 (stereo not shown) [5-(2-Chloro-4-cyanophenyl)-6,7-dihydro-5H-pyrrolo[1,2-c]imidazole-5-carboxylic acid methyl ester] | 45 nM | 96% |
| C=Cc1cc(C2CCc3cncn32)ccc1C#N (stereo not shown) [4-(6,7-Dihydro-5H-pyrrolo[1,2-c]imidazol-5-yl)-2-vinylbenzonitrile] | 8 nM | 100% |
| N#Cc1ccc([C@@H]2C[C@H](Cc3ccc(F)cc3)Cc3cncn32)c(F)c1 (relative stereo) [cis- and trans-3-Fluoro-4-[7-(4-fluorobenzyl)-5,6,7,8-tetrahydroimidazo[1,5-a]pyridin-5-yl]benzonitrile] | 7 nM | 100% |
| N#Cc1ccc(C2CCCCc3cncn32)c(-c2cccnc2)c1 (stereo not shown) [3-Pyridin-3-yl-4-(6,7,8,9-tetrahydro-5H-imidazo[1,5-a]azepin-5-yl)benzonitrile] | 35 nM | 97% |

More lines, in order of falling IC50 (aldosterone synthase), values ahead:

| IC50 (aldosterone synthase) | inhibition at 10 µM (human aromatase) | Compound |
| --- | --- | --- |
| 217 nM | 91% | CCC1(c2ccc(C#N)cc2Cl)CCCCc2cncn21 (stereo not shown) [3-Chloro-(5-ethyl-6,7,8,9-tetrahydro-5H-imidazo[1,5-a]azepin-5-yl)benzonitrile] |
| 159 nM | 100% | COc1ccc(C2CCc3cncn32)cc1F (stereo not shown) [5-(3-fluoro-4-methoxyphenyl)-6,7-dihydro-5H-pyrrolo[1,2-c]imidazole] |
| 90 nM | 100% | N#Cc1ccc(C2CCc3cncn32)c(N)c1 (stereo not shown) [3-Amino-4-(6,7-dihydro-5H-pyrrolo[1,2-c]imidazol-5-yl)benzonitrile] |
| 83 nM | 100% | COc1cc(C#N)ccc1[C@@H]1C[C@@H](Cc2ccc(F)cc2)Cc2cncn21 (relative stereo) [trans-3-Methoxy-4-[7-(4-fluorobenzyl)-5,6,7,8-tetrahydroimidazo[1,5-a]pyridin-5-yl]benzonitrile] |
| 65 nM | 92% | Fc1ccc(C2CCCCc3cncn32)c(Br)c1 (stereo not shown) [5-(2-Bromo-4-fluorophenyl)-6,7,8,9-tetrahydro-5H-imidazo[1,5-a]azepine] |
| 57 nM | 98% | Fc1ccc(C2CCCc3cncn32)c(-c2ccccc2)c1 (stereo not shown) [5-(5-Fluorobiphenyl-2-yl)-5,6,7,8-tetrahydroimidazo[1,5-a]pyridine] |
| 3 nM | 95% | Cc1cc(C2CCc3cncn32)ccc1C#N (stereo not shown) [4-(6,7-Dihydro-5H-pyrrolo[1,2-c]imidazol-5-yl)-2-methylbenzonitrile] |
| 2 nM | 91% | CC1CCCC(c2ccc(C#N)cc2-c2ccc(F)cc2)n2cncc21 (stereo not shown) [4′-Fluoro-6-(9-methyl-6,7,8,9-tetrahydro-5H-imidazo[1,5-a]azepin-5-yl)biphenyl-3-carbonitrile] |
